One series has as its target ENPP1 in human plasma (Homo sapiens, UniProt P22413). As to conditions: 50 mM EDTA, 37 °C.
The target of another series is T1, ENPP1 in mouse plasma (Mus musculus, UniProt P06802).
T1 sequence (P06802 85-906 limits assumed): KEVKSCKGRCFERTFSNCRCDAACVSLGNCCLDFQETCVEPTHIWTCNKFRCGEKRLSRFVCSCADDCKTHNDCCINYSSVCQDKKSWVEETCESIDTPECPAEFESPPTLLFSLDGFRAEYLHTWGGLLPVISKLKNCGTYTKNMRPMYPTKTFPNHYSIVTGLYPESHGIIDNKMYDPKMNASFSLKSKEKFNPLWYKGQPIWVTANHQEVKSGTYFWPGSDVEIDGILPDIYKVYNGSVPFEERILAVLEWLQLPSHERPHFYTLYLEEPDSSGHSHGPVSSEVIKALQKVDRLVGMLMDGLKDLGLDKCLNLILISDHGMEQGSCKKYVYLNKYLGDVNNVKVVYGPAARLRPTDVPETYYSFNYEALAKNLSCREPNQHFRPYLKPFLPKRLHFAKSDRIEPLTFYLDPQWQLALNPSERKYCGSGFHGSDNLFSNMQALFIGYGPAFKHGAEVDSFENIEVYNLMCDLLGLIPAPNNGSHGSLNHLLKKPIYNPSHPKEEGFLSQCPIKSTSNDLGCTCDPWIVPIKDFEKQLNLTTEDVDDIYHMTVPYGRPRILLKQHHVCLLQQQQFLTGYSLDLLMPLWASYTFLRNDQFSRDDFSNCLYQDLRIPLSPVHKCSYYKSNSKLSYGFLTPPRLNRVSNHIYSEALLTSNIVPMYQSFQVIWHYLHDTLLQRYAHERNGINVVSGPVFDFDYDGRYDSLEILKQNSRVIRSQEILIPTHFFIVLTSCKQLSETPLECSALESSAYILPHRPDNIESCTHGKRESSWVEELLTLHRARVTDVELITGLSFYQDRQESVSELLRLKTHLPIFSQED
Briefly: Inhibition of cGAMP degradation in mouse plasma. As to conditions: 50 mM EDTA, 37 °C. It counts as biochemical.

Series [1] in a line: Plasma kinetics: half-life of radiolabeled cGAMP in mouse plasma. The format is in vitro ADME. To be noted: 5 μM cGAMP, 37 °C.
The target of series [2] is T2, Mouse ENPP1 (Mus musculus, UniProt P06802).
T2 sequence (P06802 92-905 isoform P06802-2): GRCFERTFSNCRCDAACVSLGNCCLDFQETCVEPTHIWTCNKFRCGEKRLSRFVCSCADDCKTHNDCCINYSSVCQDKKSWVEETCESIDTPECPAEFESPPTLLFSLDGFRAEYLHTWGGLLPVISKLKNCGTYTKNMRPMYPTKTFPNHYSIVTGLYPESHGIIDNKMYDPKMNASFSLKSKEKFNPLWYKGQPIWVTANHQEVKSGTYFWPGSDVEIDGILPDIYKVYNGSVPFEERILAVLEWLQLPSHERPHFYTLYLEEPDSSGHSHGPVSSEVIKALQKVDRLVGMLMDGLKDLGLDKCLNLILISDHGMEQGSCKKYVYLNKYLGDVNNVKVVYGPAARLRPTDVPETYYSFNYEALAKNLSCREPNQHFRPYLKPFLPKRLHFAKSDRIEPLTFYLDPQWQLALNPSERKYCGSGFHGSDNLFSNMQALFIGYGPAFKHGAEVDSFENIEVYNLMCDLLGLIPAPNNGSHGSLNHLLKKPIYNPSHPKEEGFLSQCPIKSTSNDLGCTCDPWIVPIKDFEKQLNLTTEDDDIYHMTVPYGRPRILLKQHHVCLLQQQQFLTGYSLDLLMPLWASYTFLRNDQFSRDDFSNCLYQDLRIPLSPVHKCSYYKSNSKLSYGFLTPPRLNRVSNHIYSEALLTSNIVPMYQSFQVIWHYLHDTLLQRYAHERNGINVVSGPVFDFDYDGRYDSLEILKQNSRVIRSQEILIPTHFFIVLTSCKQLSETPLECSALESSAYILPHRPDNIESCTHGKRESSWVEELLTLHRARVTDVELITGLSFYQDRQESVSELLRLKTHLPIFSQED
As to conditions: substrate cGAMP, pH 7.4.

Series [3] in a line: Plasma kinetics: half-life of radiolabeled cGAMP in human plasma. It counts as in vitro ADME. As to conditions: based on 5 healthy donors, 5 μM cGAMP, 37 °C.
The next series deals with hERG channel (Homo sapiens, UniProt Q12809). Briefly: hERG channel inhibition assay. As to conditions: at 25 μM. In general terms: The hERG channel carries a current that helps repolarise heart muscle cells.
Sequence of hERG channel (Q12809 whole entry): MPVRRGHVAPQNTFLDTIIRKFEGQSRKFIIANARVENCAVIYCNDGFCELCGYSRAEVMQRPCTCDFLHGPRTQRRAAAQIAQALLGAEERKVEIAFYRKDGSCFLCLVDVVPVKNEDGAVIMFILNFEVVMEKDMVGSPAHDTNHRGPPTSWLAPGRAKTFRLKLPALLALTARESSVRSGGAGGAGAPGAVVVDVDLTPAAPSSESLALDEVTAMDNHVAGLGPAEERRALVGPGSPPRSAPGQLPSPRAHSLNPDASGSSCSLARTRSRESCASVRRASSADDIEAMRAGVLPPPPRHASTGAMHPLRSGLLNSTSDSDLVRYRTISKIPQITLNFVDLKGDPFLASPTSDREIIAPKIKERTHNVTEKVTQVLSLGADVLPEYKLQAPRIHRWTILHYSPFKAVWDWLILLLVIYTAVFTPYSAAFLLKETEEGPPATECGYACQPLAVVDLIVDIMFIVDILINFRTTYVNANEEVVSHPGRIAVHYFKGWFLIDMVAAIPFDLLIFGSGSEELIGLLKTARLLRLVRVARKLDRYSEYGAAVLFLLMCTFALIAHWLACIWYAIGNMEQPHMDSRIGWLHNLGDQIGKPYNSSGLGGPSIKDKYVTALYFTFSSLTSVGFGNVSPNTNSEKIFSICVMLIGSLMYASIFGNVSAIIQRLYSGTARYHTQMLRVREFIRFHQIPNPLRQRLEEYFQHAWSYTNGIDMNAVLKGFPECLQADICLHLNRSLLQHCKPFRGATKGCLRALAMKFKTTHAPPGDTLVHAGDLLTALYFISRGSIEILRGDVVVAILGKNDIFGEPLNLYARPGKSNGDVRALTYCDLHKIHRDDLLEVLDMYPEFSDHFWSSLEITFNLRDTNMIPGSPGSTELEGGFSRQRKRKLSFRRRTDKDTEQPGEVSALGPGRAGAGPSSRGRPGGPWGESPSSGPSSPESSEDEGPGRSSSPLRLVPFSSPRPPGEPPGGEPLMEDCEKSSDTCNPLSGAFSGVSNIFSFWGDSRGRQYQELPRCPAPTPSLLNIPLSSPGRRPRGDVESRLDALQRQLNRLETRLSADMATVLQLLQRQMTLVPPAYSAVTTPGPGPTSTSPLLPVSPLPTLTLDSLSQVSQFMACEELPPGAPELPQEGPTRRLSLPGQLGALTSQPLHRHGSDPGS
Series [4] has as its target T2, Mouse ENPP1. Briefly: In vitro ENPP1 activity assay with cGAMP as substrate. To be noted: Ki at pH 7.4. It counts as biochemical.

Sequence of ENPP1 in human plasma (P22413 103-925 limits assumed): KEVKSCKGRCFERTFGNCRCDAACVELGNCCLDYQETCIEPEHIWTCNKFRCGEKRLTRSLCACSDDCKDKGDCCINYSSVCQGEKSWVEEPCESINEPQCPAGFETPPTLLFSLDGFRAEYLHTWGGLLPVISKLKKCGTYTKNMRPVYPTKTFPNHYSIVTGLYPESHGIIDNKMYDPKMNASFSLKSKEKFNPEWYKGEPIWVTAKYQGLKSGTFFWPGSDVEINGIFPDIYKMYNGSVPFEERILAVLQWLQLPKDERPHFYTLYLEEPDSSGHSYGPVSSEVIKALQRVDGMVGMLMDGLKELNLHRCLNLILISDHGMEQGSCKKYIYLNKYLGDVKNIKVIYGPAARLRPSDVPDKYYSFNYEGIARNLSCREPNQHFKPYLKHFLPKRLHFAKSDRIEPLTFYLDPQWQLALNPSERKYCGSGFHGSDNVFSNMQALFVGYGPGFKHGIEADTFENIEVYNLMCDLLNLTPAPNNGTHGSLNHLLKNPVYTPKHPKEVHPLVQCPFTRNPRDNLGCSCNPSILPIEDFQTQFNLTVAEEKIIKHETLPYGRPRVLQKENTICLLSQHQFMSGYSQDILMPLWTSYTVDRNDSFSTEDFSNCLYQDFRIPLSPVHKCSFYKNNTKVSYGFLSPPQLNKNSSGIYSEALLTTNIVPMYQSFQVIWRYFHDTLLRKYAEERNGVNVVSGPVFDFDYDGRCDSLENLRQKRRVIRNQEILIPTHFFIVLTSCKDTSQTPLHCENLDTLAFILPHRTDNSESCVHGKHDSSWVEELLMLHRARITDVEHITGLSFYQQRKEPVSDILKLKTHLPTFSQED

For the compound `O=C(O)CN(CCN(CC(=O)O)CC(=O)O)CC(=O)O` [EDTA], the “effect on cGAMP degradation” value on ENPP1 in human plasma and at ENPP1 in mouse plasma was “abrogated cGAMP degradation” in each case. Consider `Nc1nc2c(ncn2[C@@H]2O[C@@H]3COP(=O)(O)O[C@H]4[C@@H](O)[C@H](n5cnc6c(N)ncnc65)O[C@@H]4COP(=O)(O)O[C@@H]2[C@@H]3O)c(=O)[nH]1` [cGAMP, 2’,3’-cyclic GMP-AMP], for which the “t1/2 of cGAMP” value was 16 min in series [1] and 30 to 60 min in series [3]. In addition, the Km at Mouse ENPP1 [2] was 240 µM. Regarding `COc1cc2ncnc(N3CCC(CCP(=O)(O)O)CC3)c2cc1OC` [compound 15], on hERG channel, the hERG inhibition result is “no inhibition”. As for `COc1ccc2ncnc(N3CCC(CCP(=O)(O)O)CC3)c2c1` [compound 25], at Mouse ENPP1 [4], the “loss in potency compared to compound 15” value is listed as 100 fold.

With `COc1cc2nccc(N3CCC(CCP(=O)(O)O)CC3)c2cc1OC` [compound 46], the “loss in potency compared to compound 15” value at Mouse ENPP1 [4] is on record as 3 fold.

As a reminder, the Km is the substrate concentration at which the rate is half of its maximum.
